# Experimental data published in patent US20020187514A1 (priority 1999, published 2002).
# How the values were obtained:
# Adenosine Transporter = Adenosine Transporter (Homo sapiens, UniProt Q99808); assay: biochemical; format: binding; conditions: read-out: Pass 1 (10^−5 M) % Inhibition
# Adenosine, A2 = Adenosine, A2 (UniProt P30543); assay: Adenosine, A2; [3H]CGS21680; format: binding
# Adrenergic, Alpha 1B = Adrenergic, Alpha 1B (UniProt P15823); assay: Adrenergic, Alpha 1B; [3H]-7-MeOxy-Prazosin; format: binding
# Adrenergic, Beta 2 = Adrenergic, Beta 2 (Homo sapiens, UniProt P07550); assay: biochemical; format: binding; conditions: read-out: Pass 1 (10^−5 M) % Inhibition
# [1] = biological target: Benzodiazepine, peripheral (Homo sapiens, UniProt P30536); assay: biochemical; format: binding; conditions: read-out: Pass 1 (10^−5 M) % Inhibition
# Cannabinoid, CB1 = biological target: T1, Cannabinoid, CB1 (Homo sapiens, UniProt P21554); assay: Cannabinoid, CB1 (Human recombinant); [3H]-CP55940; format: binding; conditions: read-out: Pass 1 (10^−5 M) % Inhibition
# T1 construct: expressed in transfected cells
# Dopamine, D5 = biological target: T2, Dopamine, D5 (Homo sapiens, UniProt P21918); assay: biochemical; format: binding; conditions: read-out: Pass 1 (10^−5 M) % Inhibition
# T2 construct: expressed in transfected cells
# GABA-B = format: binding
# Glutamate, Kainate Site = assay: Glutamate, Kainate Site; [3H]Kainic acid; format: binding; conditions: 10^−5 M
# Histamine, H3 = assay: Histamine, H3; [3H]N-a-MeHistamine; format: binding; conditions: 10^−5 M
# Imidazoline, I2, central = assay: Imidazoline, I2, central; [3H]2-BFI; format: binding; conditions: 10^−5 M
# Opiate, Delta 1 = Opiate, Delta 1 (UniProt P33533); format: binding
# Opiate, Kappa = biological target: T3, Opiate, Kappa (Homo sapiens, UniProt P41145); assay: biochemical; format: binding; conditions: read-out: Pass 1 (10^−5 M) % Inhibition
# T3 construct: expressed in transfected cells
# Opiate, Kappa 1 = Opiate, Kappa 1 (UniProt P41144); format: binding
# Serotonin, 5HT1B = biological target: T4, Serotonin, 5HT1B (Rattus norvegicus, UniProt P28564); assay: biochemical; format: binding; conditions: read-out: Pass 1 (10^−5 M) % Inhibition
# T4 construct: no other source notation after assay name denotes animal cell or animal tissue source; from tissue; host or cells: animal cell or animal tissue, not specified
# Serotonin, 5HT2A = Serotonin, 5HT2A (Homo sapiens, UniProt P28223); assay: biochemical; format: binding; conditions: read-out: Pass 1 (10^−5 M) % Inhibition
# Serotonin, 5HT3 = Serotonin, 5HT3 (Mus musculus, UniProt P23979); assay: biochemical; format: binding
# Serotonin, 5HT4 = biological target: T5, Serotonin, 5HT4 (Cavia porcellus, UniProt O70528); assay: biochemical; format: binding; conditions: read-out: Pass 1 (10^−5 M) % Inhibition
# T5 construct: no other source notation after assay name denotes animal cell or animal tissue source; from tissue; host or cells: animal cell or animal tissue, not specified
# Serotonin, 5HT7 = biological target: T6, Serotonin, 5HT7 (Homo sapiens, UniProt P34969); assay: biochemical; format: binding; conditions: read-out: Pass 1 (10^−5 M) % Inhibition
# T6 construct: expressed in transfected cells
# [2] = system: Glutamate, NMDA, Phencyclidine Site; assay: Glutamate, NMDA, Phencyclidine Site; [3H]TCP; format: binding; conditions: 10^−5 M
# [3] = system: Potassium Channel, Ca2+ Act., VS; assay: Potassium Channel, Ca2+ Act., VS; [125I]Charybdotoxin; format: binding; conditions: 10^−5 M
# Sodium, Site 2 = format: binding
# Protein Kinase C, PDBu = format: binding
# [4] = system: Adenosine Transport (cs + es); assay: Adenosine Transport (cs + es) (Human); [3H]-Adenosine; format: biochemical; conditions: 10^−5 M
# Adenosine Transport (es) = Adenosine Transport (es) (Homo sapiens, UniProt Q99808); assay: biochemical; conditions: read-out: Pass 1 (10^−5 M) % Inhibition
# GABA Transport = format: biochemical; conditions: 10^−5 M
# Glutamate Transport = assay: Glutamate Transport; [3H]Glutamic Acid; format: biochemical; conditions: 10^−5 M
# [5] = system: Corticotropin Releasing Factor, CRF; format: binding
# Endothelin, ET-B = biological target: T7, Endothelin, ET-B (Homo sapiens, UniProt P24530); assay: biochemical; format: binding; conditions: read-out: Pass 1 (10^−5 M) % Inhibition
# T7 construct: expressed in transfected cells
# Galanin = assay: Galanin; [I125]Galanin; format: binding
# Neurokinin, NK1 = format: binding; conditions: 10^−5 M
# Neuropeptide, NPY2 = Neuropeptide, NPY2 (Homo sapiens, UniProt P49146); assay: biochemical; format: binding; conditions: read-out: Pass 1 (10^−5 M) % Inhibition
# Neurotensin = biological target: T8, Neurotensin (Homo sapiens, UniProt P30989); assay: biochemical; format: binding; conditions: read-out: Pass 1 (10^−5 M) % Inhibition
# T8 construct: expressed in transfected cells
# Esterase = Esterase (Human); substrate Acetylthiocholine; format: biochemical
# [6] = biological target: T9, Monoamine Oxidase A, Peripheral (Rattus norvegicus, UniProt P21396); assay: biochemical; conditions: read-out: Pass 1 (10^−5 M) % Inhibition
# T9 construct: no other source notation after assay name denotes animal cell or animal tissue source; from tissue
# [7] = biological target: T10, Monoamine Oxidase B, Peripheral (Rattus norvegicus, UniProt P19643); assay: Monoamine Oxidase B, Peripheral; substrate [14C]Phenylethylamine; format: biochemical; conditions: read-out: Pass 1 (10^−5 M) % Inhibition
# T10 construct: no other source notation after assay name denotes animal cell or animal tissue source; from tissue
# [8] = biological target: Protein Tyrosine Phosphatase, PTP-CD45 (Homo sapiens, UniProt P08575); assay: Protein Tyrosine Phosphatase, PTP-CD45 (Human); substrate pNPP; format: biochemical; conditions: read-out: Pass 1 (10^−5 M) % Inhibition
# Serotonin Transporter = Serotonin Transporter (Rattus norvegicus, UniProt P31652); assay: biochemical; format: binding; conditions: read-out: % Inhibiton (10^−5 M)
# [9] = reported in vivo pharmacology, cited from earlier work
# Muscarinic, M2 = Muscarinic, M2 (Homo sapiens, UniProt P08172); assay: biochemical; conditions: read-out: Pass 1 (10^−5 M) % Inhibition
# Muscarinic, M3 = Muscarinic, M3 (Homo sapiens, UniProt P20309); assay: biochemical; conditions: read-out: Pass 1 (10^−5 M) % Inhibition
# Serotonin, 5HT3, sequence (P23979 24-489): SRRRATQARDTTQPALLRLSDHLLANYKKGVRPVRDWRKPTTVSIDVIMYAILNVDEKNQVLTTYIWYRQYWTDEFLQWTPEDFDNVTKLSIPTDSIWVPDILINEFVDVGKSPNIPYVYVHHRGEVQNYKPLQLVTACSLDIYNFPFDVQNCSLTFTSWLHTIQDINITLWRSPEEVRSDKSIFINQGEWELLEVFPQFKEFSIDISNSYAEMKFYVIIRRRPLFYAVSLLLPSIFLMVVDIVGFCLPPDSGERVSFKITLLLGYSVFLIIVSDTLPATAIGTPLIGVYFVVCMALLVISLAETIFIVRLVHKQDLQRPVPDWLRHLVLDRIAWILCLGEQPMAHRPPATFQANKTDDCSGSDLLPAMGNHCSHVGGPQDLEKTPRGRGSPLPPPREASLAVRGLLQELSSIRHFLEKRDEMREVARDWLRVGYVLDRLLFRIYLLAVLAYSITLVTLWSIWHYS
# T3 sequence (P41145 whole entry): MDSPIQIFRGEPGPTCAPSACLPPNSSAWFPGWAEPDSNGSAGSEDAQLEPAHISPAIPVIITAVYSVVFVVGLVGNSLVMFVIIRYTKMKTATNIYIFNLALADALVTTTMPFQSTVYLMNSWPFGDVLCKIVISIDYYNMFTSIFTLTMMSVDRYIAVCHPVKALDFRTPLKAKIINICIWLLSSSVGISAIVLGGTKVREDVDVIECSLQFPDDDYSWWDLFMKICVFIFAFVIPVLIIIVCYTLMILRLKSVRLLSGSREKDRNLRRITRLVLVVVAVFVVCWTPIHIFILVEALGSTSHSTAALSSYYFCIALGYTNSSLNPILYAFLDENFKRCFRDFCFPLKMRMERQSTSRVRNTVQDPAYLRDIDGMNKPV
# Adenosine, A2, sequence (P30543 whole entry): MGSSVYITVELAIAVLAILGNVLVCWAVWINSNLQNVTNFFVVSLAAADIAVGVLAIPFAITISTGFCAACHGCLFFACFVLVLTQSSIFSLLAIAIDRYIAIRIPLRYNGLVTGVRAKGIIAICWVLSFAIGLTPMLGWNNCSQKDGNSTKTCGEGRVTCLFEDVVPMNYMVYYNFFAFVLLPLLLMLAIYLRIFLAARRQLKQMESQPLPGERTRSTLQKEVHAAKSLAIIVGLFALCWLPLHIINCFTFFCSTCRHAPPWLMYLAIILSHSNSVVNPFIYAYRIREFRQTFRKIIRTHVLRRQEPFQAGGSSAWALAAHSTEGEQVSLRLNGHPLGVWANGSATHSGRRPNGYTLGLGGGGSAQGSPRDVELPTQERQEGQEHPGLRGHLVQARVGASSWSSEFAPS
# T9 sequence (P21396 whole entry, looked up): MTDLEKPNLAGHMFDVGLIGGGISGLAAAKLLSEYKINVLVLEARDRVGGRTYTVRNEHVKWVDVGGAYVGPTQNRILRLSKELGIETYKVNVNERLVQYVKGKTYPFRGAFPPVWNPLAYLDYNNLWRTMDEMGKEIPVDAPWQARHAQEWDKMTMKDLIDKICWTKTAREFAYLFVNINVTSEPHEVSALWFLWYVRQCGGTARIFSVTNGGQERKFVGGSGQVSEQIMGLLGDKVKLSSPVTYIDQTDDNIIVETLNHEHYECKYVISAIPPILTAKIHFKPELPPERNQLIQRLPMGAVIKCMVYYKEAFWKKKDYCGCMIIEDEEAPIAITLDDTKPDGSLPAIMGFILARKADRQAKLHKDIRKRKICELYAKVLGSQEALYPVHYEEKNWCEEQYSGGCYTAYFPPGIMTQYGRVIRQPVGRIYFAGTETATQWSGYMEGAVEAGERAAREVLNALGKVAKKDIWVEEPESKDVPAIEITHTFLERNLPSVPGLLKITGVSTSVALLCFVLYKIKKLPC
# Benzodiazepine, peripheral, sequence (P30536 whole entry): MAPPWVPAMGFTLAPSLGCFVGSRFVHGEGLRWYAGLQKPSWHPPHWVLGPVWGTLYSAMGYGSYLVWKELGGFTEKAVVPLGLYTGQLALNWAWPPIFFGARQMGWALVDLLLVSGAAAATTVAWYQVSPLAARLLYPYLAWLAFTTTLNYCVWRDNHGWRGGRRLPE
# Opiate, Delta 1, sequence (P33533 whole entry): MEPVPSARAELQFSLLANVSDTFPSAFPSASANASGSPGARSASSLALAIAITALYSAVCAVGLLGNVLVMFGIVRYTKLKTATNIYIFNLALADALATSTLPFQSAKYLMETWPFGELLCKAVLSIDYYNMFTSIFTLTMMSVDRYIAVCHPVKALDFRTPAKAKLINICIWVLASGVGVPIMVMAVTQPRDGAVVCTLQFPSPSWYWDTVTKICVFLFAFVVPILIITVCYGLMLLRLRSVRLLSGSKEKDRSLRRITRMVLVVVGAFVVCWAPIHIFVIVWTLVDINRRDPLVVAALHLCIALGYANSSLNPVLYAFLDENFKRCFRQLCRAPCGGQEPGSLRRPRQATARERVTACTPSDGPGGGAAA
# T10 sequence (P19643 whole entry): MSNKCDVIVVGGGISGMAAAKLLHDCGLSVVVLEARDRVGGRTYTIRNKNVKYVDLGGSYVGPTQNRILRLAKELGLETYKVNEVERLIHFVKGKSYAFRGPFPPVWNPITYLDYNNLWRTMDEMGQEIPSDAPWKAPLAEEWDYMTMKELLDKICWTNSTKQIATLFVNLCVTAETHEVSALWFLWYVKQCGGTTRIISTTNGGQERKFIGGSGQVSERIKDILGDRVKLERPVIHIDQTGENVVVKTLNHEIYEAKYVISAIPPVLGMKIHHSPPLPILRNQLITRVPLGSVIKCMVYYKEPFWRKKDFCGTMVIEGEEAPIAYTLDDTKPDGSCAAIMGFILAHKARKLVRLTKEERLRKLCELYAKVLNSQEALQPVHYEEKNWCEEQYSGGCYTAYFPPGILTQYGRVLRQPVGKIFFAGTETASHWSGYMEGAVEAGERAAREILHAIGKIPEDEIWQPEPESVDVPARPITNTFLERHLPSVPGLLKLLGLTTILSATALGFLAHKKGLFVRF
# Muscarinic, M2, sequence (P08172 whole entry): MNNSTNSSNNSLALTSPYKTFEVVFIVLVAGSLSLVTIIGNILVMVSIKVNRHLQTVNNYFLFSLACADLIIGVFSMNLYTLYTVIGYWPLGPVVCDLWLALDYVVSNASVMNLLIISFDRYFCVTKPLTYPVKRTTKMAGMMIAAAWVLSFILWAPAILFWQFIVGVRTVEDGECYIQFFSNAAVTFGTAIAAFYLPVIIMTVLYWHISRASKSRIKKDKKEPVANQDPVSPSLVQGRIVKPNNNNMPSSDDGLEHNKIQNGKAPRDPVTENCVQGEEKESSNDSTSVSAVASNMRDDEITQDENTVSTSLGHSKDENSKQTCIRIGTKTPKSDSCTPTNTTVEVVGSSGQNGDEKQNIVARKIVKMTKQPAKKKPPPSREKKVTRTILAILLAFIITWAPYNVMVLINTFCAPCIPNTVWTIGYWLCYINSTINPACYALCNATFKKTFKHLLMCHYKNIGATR
# T5 sequence (O70528 whole entry): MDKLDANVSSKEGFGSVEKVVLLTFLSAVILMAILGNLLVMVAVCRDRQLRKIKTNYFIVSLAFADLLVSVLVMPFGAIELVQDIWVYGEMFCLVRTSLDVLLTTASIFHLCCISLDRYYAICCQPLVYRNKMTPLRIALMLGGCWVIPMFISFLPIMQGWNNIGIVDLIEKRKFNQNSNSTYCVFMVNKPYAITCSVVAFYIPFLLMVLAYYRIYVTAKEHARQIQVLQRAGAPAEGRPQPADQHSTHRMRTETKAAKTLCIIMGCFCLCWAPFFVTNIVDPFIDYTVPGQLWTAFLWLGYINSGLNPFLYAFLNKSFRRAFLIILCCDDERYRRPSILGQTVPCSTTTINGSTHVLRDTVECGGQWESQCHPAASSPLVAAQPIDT
# T1 sequence (P21554 whole entry): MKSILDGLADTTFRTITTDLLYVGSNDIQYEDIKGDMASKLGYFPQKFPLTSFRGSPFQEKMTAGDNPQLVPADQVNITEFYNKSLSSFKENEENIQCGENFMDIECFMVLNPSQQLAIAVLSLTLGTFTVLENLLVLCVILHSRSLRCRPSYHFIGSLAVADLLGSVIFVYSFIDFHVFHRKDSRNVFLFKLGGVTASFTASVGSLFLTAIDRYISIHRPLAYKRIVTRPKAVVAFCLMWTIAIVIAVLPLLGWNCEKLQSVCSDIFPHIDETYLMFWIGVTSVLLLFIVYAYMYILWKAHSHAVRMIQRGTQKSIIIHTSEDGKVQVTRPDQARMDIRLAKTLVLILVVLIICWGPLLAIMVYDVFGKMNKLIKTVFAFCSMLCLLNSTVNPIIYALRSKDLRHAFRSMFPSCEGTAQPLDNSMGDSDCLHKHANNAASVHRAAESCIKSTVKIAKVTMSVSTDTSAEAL
# T7 sequence (P24530 27-442): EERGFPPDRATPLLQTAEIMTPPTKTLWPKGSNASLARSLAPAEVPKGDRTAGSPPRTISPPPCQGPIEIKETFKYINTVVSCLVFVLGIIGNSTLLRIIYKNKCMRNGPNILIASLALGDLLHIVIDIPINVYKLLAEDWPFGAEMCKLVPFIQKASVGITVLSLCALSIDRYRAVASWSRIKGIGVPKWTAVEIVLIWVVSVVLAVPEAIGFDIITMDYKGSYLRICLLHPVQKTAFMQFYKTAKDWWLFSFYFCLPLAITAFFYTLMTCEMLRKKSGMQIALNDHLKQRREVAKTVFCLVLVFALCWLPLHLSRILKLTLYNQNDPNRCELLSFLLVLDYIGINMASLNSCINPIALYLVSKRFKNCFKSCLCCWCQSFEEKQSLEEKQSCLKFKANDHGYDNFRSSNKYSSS
smiles,measurement,setting,value
COC(=O)[C@H]1[C@@H](OC(=O)c2ccccc2)C[C@@H]2CC[C@H]1N2C [cocaine],inhibition at 10 µM,Adenosine Transporter,16.5%
same,Pass 1 (10^−5 M) % Inhibition,"Adenosine, A2",26.30%
same,Pass 1 (10^−5 M) % Inhibition,"Adrenergic, Alpha 1B",−6.30%
same,inhibition at 10 µM,"Adrenergic, Beta 2",-15.6%
same,inhibition at 10 µM,[1],0.51%
same,inhibition at 10 µM,"Cannabinoid, CB1",33.4%
same,inhibition at 10 µM,"Dopamine, D5",2.44%
same,Pass 1 (10^−5 M) % Inhibition,GABA-B,24.90%
same,Pass 1 (10^−5 M) % Inhibition,"Glutamate, Kainate Site",1.95%
same,Pass 1 (10^−5 M) % Inhibition,"Histamine, H3",−4.60%
same,Pass 1 (10^−5 M) % Inhibition,"Imidazoline, I2, central",37.90%
same,Pass 1 (10^−5 M) % Inhibition,"Opiate, Delta 1",2.51%
same,inhibition at 10 µM,"Opiate, Kappa",1.87%
same,Pass 1 (10^−5 M) % Inhibition,"Opiate, Kappa 1",10.19%
same,inhibition at 10 µM,"Serotonin, 5HT1B",3.31%
same,inhibition at 10 µM,"Serotonin, 5HT2A",23.4%
same,Ki,"Serotonin, 5HT3; Pass 3 screening, nine concentrations, read-out: Ki Determination",3.09 µM
same,inhibition at 10 µM,"Serotonin, 5HT3; read-out: Pass 1 (10^−5 M) % Inhibition",60.3%
same,inhibition at 10 µM,"Serotonin, 5HT4",22.1%
same,inhibition at 10 µM,"Serotonin, 5HT7",26.8%
same,Pass 1 (10^−5 M) % Inhibition,[2],6.63%
same,Pass 1 (10^−5 M) % Inhibition,[3],16.63%
same,Pass 1 (10^−5 M) % Inhibition,"Sodium, Site 2",36.80%
same,Pass 1 (10^−5 M) % Inhibition,"Protein Kinase C, PDBu",−4.44%
same,Pass 1 (10^−5 M) % Inhibition,[4],2.79%
same,inhibition at 10 µM,Adenosine Transport (es),47.5%
same,Pass 1 (10^−5 M) % Inhibition,GABA Transport,−19.43%
same,Pass 1 (10^−5 M) % Inhibition,Glutamate Transport,24.20%
same,Pass 1 (10^−5 M) % Inhibition,[5],22.49%
same,inhibition at 10 µM,"Endothelin, ET-B",0.19%
same,Pass 1 (10^−5 M) % Inhibition,Galanin,−14.73%
same,Pass 1 (10^−5 M) % Inhibition,"Neurokinin, NK1",−1.72%
same,inhibition at 10 µM,"Neuropeptide, NPY2",4.27%
same,inhibition at 10 µM,Neurotensin,19.1%
same,Pass 1 (10^−5 M) % Inhibition,Esterase,31.58%
same,inhibition at 10 µM,[6],32.8%
same,inhibition at 10 µM,[7],-22.8%
same,inhibition at 10 µM,[8],12%
same,inhibition at 10 µM,Serotonin Transporter,96.2%
same,effects of high dosages,[9]; high dosages,"euphoria, involuntary motor activity, stereotypic behavior, paranoia, and irritability and increased risk of violence"
same,effect on heart rate and blood pressure,[9],dosage dependent increase in heart rate and blood pressure
same,inhibition at 10 µM,"Muscarinic, M2",3.57%
same,inhibition at 10 µM,"Muscarinic, M3",-8.07%
